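All cell lines were grown in 96-well plates and treated with compound for 48 hours. TGI: total growth inhibition.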
How the values were obtained:
Experiment in all cases: NCI-60 cell line screen, 48 h
[1] = system: DMS 273 small cell lung
[2] = system: SF-268 CNS
[3] = system: NCI-H522 lung
[4] = system: UACC-62 melanoma
[5] = system: EKVX NSCLC
[6] = system: ACHN renal
[7] = system: OVCAR-8 ovarian
[8] = system: DLD-1 colon
[9] = system: HCC-2998 colon
[10] = system: M14 melanoma
[11] = system: TK-10 renal
[12] = system: RXF 393 renal
[13] = system: K-562 leukemia
[14] = system: LXFL 529 NSCLC
[15] = system: KM20L2 colon
[16] = system: RPMI-8226 leukemia
[17] = system: OVCAR-5 ovarian
[18] = system: RXF-631 renal
[19] = system: IGROV1 ovarian
[20] = system: KM12 colon
[21] = system: DMS 114 small cell lung
[22] = system: MOLT-4 leukemia
[23] = system: UACC-257 melanoma
[24] = system: A498 renal
[25] = system: SF-539 CNS
[26] = system: COLO 205 colon
[27] = system: SNB-19 CNS
[28] = system: 786-0 renal
[29] = system: NCI-H23 lung
[30] = system: U251 CNS
[31] = system: SK-MEL-2 melanoma
[32] = system: OVCAR-4 ovarian
[33] = system: SK-MEL-28 melanoma
[34] = system: CAKI-1 renal
[35] = system: A549 NSCLC
[36] = system: MALME-3M melanoma
[37] = system: LOX IMVI melanoma
[38] = system: UO-31 renal
[39] = system: HCT-15 colon
[40] = system: SNB-78 CNS
[41] = system: SF-295 CNS
[42] = system: SN12C renal
[43] = system: HOP-18 NSCLC
[44] = system: SK-MEL-5 melanoma
[45] = system: HOP-92 NSCLC
[46] = system: SW-620 colon
[47] = system: HOP-62 NSCLC
[48] = system: SK-OV-3 ovarian
[49] = system: NCI-H460 lung
[50] = system: XF 498 CNS
[51] = system: OVCAR-3 ovarian
[52] = system: HCT-116 colon
[53] = system: HT29 colon
[54] = system: SNB-75 CNS
[55] = system: M19-MEL melanoma
[56] = system: SR leukemia
[57] = system: CCRF-CEM leukemia
[58] = system: NCI-H226 lung
[59] = system: HL-60(TB) leukemia

O=C(Nc1cccc(Cl)c1)c1cc2cc(N=Nc3ccc(Br)cc3)ccc2oc1=O
TGI [1]: 55.6 µM
TGI [2]: > 100 µM
TGI [3]: > 100 µM
TGI [4]: 39.1 µM
TGI [5]: > 100 µM
TGI [6]: > 100 µM
TGI [7]: > 100 µM
TGI [8]: > 100 µM
TGI [9]: 88.7 µM
TGI [10]: 52.9 µM
TGI [11]: > 100 µM
TGI [12]: > 100 µM
TGI [13]: > 100 µM
TGI [14]: 30.5 µM
TGI [15]: > 100 µM
TGI [16]: > 100 µM
TGI [17]: 58 µM
TGI [18]: > 100 µM
TGI [19]: > 100 µM
TGI [20]: 76 µM
TGI [21]: 56.6 µM
TGI [22]: 77.7 µM
TGI [23]: > 100 µM
TGI [24]: > 100 µM
TGI [25]: > 100 µM
TGI [26]: > 100 µM
TGI [27]: > 100 µM
TGI [28]: > 100 µM
TGI [29]: 64.3 µM
TGI [30]: > 100 µM
TGI [31]: 52.7 µM
TGI [32]: 88.7 µM
TGI [33]: > 100 µM
TGI [34]: > 100 µM
TGI [35]: > 100 µM
TGI [36]: > 100 µM
TGI [37]: 45.1 µM
TGI [38]: > 100 µM
TGI [39]: > 100 µM
TGI [40]: > 100 µM
TGI [41]: > 100 µM
TGI [42]: > 100 µM
TGI [43]: > 100 µM
TGI [44]: > 100 µM
TGI [45]: > 100 µM
TGI [46]: > 100 µM
TGI [47]: > 100 µM
TGI [48]: > 100 µM
TGI [49]: > 100 µM
TGI [50]: > 100 µM
TGI [51]: > 100 µM
TGI [52]: > 100 µM
TGI [53]: > 100 µM
TGI [54]: > 100 µM

Nc1n[nH]c(=O)c2c1c(Br)cn2C1OC(CO)C(O)C1O (configuration not stated)
TGI [1]: > 41.2 µM
TGI [2]: 55.4 µM
TGI [3]: 25.2 µM
TGI [4]: 37.5 µM
TGI [5]: 39.5 µM
TGI [6]: > 100 µM
TGI [7]: 6.23 µM
TGI [8]: > 25.3 µM
TGI [55]: 40.2 µM
TGI [9]: 24.7 µM
TGI [10]: 30.1 µM
TGI [56]: 14.3 µM
TGI [11]: > 100 µM
TGI [12]: 10.3 µM
TGI [13]: > 100 µM
TGI [14]: > 100 µM
TGI [15]: > 100 µM
TGI [16]: 22.5 µM
TGI [17]: 44 µM
TGI [18]: 6.59 µM
TGI [19]: > 100 µM
TGI [20]: > 100 µM
TGI [21]: 17.8 µM
TGI [22]: 9.3 µM
TGI [23]: > 77.9 µM
TGI [24]: > 71.2 µM
TGI [25]: 25.8 µM
TGI [26]: 28.1 µM
TGI [27]: > 100 µM
TGI [28]: > 100 µM
TGI [29]: 25 µM
TGI [57]: 19.2 µM
TGI [30]: > 54.6 µM
TGI [31]: 41.4 µM
TGI [32]: 26.3 µM
TGI [33]: 26.6 µM
TGI [34]: > 100 µM
TGI [35]: > 100 µM
TGI [36]: 54.7 µM
TGI [37]: 15.3 µM
TGI [38]: 26.8 µM
TGI [39]: 48.4 µM
TGI [40]: > 80.5 µM
TGI [41]: > 90.2 µM
TGI [42]: 43.5 µM
TGI [43]: 65.6 µM
TGI [44]: 45.4 µM
TGI [45]: 7.59 µM
TGI [46]: > 100 µM
TGI [47]: 98.2 µM
TGI [58]: 59.3 µM
TGI [48]: > 100 µM
TGI [49]: > 100 µM
TGI [51]: > 50.8 µM
TGI [52]: > 40.6 µM
TGI [53]: > 100 µM
TGI [59]: 1.03 µM
TGI [54]: 11.2 µM
